# Test results as given in patent publication EP0013067A1, “Bicyclic beta-lactam antibacterial agents, their use in pharmaceutical compositions, processes for their preparation and intermediates for use in such processes” (BEECHAM GROUP PLC, priority 1978, dated 1980).
# How the values were obtained:
# Assay in all cases: MIC, microtitre using Nutrient broth
# Format in all cases: cell-based
# [1] = test system: Pseudomonas aeruginosa A; settings: Pseudomonas aeruginosa A; Microtitre using nutrient broth; inoculum 0.001 ml of a 10^-2 dilution for G + ve bacteria or a 10^-4 dilution for G - ve organisms; read-out: MIC Broth
# Text: (§1) The ninimum inhibitory concentrations (MIC) cf this compound required to inhibit the growth of various bacteria are tabulated balow: […]
# [2] = test system: Proteus mirabilis C977; settings: Proteus mirabilis C977; Microtitre using nutrient broth; inoculum 0.001 ml of a 10^-2 dilution for G + ve bacteria or a 10^-4 dilution for G - ve organisms; read-out: MIC Broth
# Text: as §1
# [3] = test system: Escherichia coli JT 39; settings: JT39; Escherichia coli JT 39; Microtitre using nutrient broth; inoculum 0.001 ml of a 10^-2 dilution for G + ve bacteria or a 10^-4 dilution for G - ve organisms; read-out: MIC Broth
# Text: as §1
# [4] = test system: Staphylococcus aureus Russell; settings: Staphylococcus aureus Russell; Microtitre using nutrient broth; inoculum 0.001 ml of a 10^-2 dilution for G + ve bacteria or a 10^-4 dilution for G - ve organisms; read-out: MIC Broth
# Text: as §1
# [5] = test system: Escherichia coli 0111; settings: Microtitre using nutrient broth, inoculum 0.001 ml of a 10^-2 dilution for G + ve bacteria or a 10^-4 dilution for G - ve organisms
# Text: as §1
# [6] = test system: Staphylococcus aureus Oxford; settings: Staphylococcus aureus Oxford; Microtitre using nutrient broth; inoculum 0.001 ml of a 10^-2 dilution for G + ve bacteria or a 10^-4 dilution for G - ve organisms; read-out: MIC Broth
# Text: as §1
# [7] = test system: Klebsiella aerogenes A; settings: Klebsiella aerogenes A; Microtitre using nutrient broth; inoculum 0.001 ml of a 10^-2 dilution for G + ve bacteria or a 10^-4 dilution for G - ve organisms; read-out: MIC Broth
# Text: as §1
# [8] = test system: Staphylococcus aureus 1517; settings: inoculum 0.001 ml of a 10^-2 dilution for G + ve bacteria or a 10^-4 dilution for G - ve organisms
# Text: as §1
# [9] = test system: Enterobacter cloacae N1; settings: Microtitre using nutrient broth, inoculum 0.001 ml of a 10^-2 dilution for G + ve bacteria or a 10^-4 dilution for G - ve organisms
# Text: as §1
Compound,MIC [1],MIC [2],MIC [3],MIC [4],MIC [5],MIC [6],MIC [7],MIC [8],MIC [9]
"O=C(O)C1=C(CO)SC2CC(=O)N12 (stereo not drawn) [compound 19, Sodium 2-Hydroxymethyl penem-3-carboxylate]",62 µg/mL,62 µg/mL,62 µg/mL,8 µg/mL,31 µg/mL,4 µg/mL,31 µg/mL,–,–
"CC(=O)OCC1=C(C(=O)O)N2C(=O)CC2S1 (stereo not drawn) [compound 21, Sodium 2-Acetoxymethyl penem-3-carboxylate]",500 µg/mL,8 µg/mL,31 µg/mL,8 µg/mL,8 µg/mL,–,8 µg/mL,8 µg/mL,62 µg/mL
